In ChEMBL document CHEMBL1131885, “Acyclic structural variants of growth hormone secretagogue L-692,429” (1999):
Calls of active or inactive are those of the source. The rule behind the calls is not given here.

Legend:
[1] = species: Rattus norvegicus; test: In vitro growth hormone release in rat pituitary cells assay was determined; assay type: functional; conditions: Pituitary gland cell, read-out: ED50 (the source's name)
[2] = species: Rattus norvegicus; test: In vitro growth hormone release in rat pituitary cells assay was determined; IA means inactive; assay type: functional, cell-based; conditions: Pituitary gland cell

Structure (SMILES) | EC50 [1] | ED50 [2]
CC(C)(N)CC(=O)N[C@H](Cc1ccccc1)C(=O)NCc1ccc(-c2ccccc2-c2nn[nH]n2)cc1 | 11000 nM | 
CC(C)(N)CC(=O)N[C@H](CCc1ccccc1)C(=O)NCc1ccc(-c2ccccc2-c2nn[nH]n2)cc1 | 200 nM | 
CN(Cc1ccc(-c2ccccc2-c2nn[nH]n2)cc1)C(=O)[C@@H](CCc1ccccc1)NC(=O)C(C)(C)N | 30 nM | 
CC(C)(N)CC(=O)N[C@H](Cc1c[nH]c2ccccc12)C(=O)NCc1ccc(-c2ccccc2-c2nn[nH]n2)cc1 | 400 nM | 
C[C@@H](NC(=O)CC(C)(C)N)C(=O)NCc1ccc(-c2ccccc2-c2nn[nH]n2)cc1 |  | inactive
CCN(Cc1ccc(-c2ccccc2-c2nn[nH]n2)cc1)C(=O)[C@@H](CCc1ccccc1)NC(=O)C(C)(C)N | > 500 nM | 
CN(Cc1ccc(-c2ccccc2-c2nn[nH]n2)cc1)C(=O)[C@@H](CCc1ccccc1)NC(=O)CC(C)(C)N | > 300 nM | 
CC(C)N(Cc1ccc(-c2ccccc2-c2nn[nH]n2)cc1)C(=O)[C@@H](CCc1ccccc1)NC(=O)C(C)(C)N | > 500 nM | 
CC(C)(N)CC(=O)NCC(=O)NCc1ccc(-c2ccccc2-c2nn[nH]n2)cc1 |  | inactive
CN(C(=O)[C@@H](CCc1ccccc1)NC(=O)C(C)(C)N)c1ccc(-c2ccccc2-c2nn[nH]n2)cc1 | 300 nM | 
CC(C)(N)CC(=O)N[C@H](COCc1ccccc1)C(=O)NCc1ccc(-c2ccccc2-c2nn[nH]n2)cc1 | > 1000 nM | 
CC[C@@H](NC(=O)CC(C)(C)N)C(=O)N(Cc1ccc(-c2ccccc2-c2nn[nH]n2)cc1)c1ccccc1 | 11000 nM | 
CC(C)(N)CC(=O)N[C@@H]1CCc2ccccc2N(Cc2ccc(-c3ccccc3-c3nn[nH]n3)cc2)C1=O | 60 nM | 
CN(Cc1ccc(-c2ccccc2-c2nn[nH]n2)cc1)C(=O)[C@@H](CCc1ccccc1)NC(=O)CCC(C)(C)N | > 300 nM | 
